# Source: ChEMBL document CHEMBL1201862, “PubChem BioAssay data set” (2004)
#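 Test compounds were applied to cells in 96-well plates for 48 hours at 5 doses. GI50 is the concentration that inhibits growth by half.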 Active and inactive are the calls of the source. Rule as the data show it: active = GI50 up to about 1.1 µM and inactive = higher.
# Assays:
# Assay in all cases: NCI tumour cell line growth inhibition, 48 h
# HCT-116 = tested on: HCT-116
# SK-MEL-5 = tested on: SK-MEL-5
# NCI-H460 = tested on: NCI-H460
# HOP-92 = tested on: HOP-92
# NCI-H23 = tested on: NCI-H23
# SNB-75 = tested on: SNB-75
# 786-0 = tested on: 786-0
# SK-MEL-28 = tested on: SK-MEL-28
# HL-60 = tested on: HL-60
# CCRF-CEM = tested on: CCRF-CEM
# LOX IMVI = tested on: LOX IMVI
# SK-MEL-2 = tested on: SK-MEL-2
# SW-620 = tested on: SW-620
# HOP-62 = tested on: HOP-62
# SNB-19 = tested on: SNB-19
# A498 = tested on: A498
# NCI-H522 = tested on: NCI-H522
# Malme-3M = tested on: Malme-3M
# IGROV-1 = tested on: IGROV-1
# ACHN = tested on: ACHN
smiles,measurement,setting,value
CN(C)CCCNc1ccc2nnn3c4ccc([N+](=O)[O-])cc4c(=O)c1c23,GI50,HCT-116,404 nM (active)
same,GI50,SK-MEL-5,1700 nM (inactive)
same,GI50,NCI-H460,313 nM (active)
same,GI50,HOP-92,1570 nM (inactive)
same,GI50,NCI-H23,2030 nM (inactive)
same,GI50,SNB-75,1510 nM (inactive)
same,GI50,786-0,624 nM (active)
same,GI50,SK-MEL-28,4600 nM (inactive)
same,GI50,HL-60,1830 nM (inactive)
same,GI50,CCRF-CEM,785 nM (active)
same,GI50,LOX IMVI,641 nM (active)
same,GI50,SK-MEL-2,3120 nM (inactive)
same,GI50,SW-620,450 nM (active)
same,GI50,HOP-62,817 nM (active)
same,GI50,SNB-19,2730 nM (inactive)
same,GI50,A498,2260 nM (inactive)
same,GI50,NCI-H522,1630 nM (inactive)
same,GI50,Malme-3M,3560 nM (inactive)
same,GI50,IGROV-1,1950 nM (inactive)
same,GI50,ACHN,542 nM (active)
